Legend:
[1] = test system: bovine serum albumin (BSA); assay: Adjuvant character in the aqueous phase (antibody titer by passive hemagglutination); format: in vivo, Swiss mice; conditions: mice, 0.5 mg BSA with 0.1 mg tested substance SC in isotonic saline, booster day 30, titer at the 36th day
Method: Groups of 8 Swiss mice aged two months received, by sub-cutaneous injection (SC), 0.5 mg of antigen constituted by bovine serum albumin (BSA) with 0.1 mg or without the tested substance in an isotonic saline solution. This high dose of antigen, because it is situated at the limit of the paralyzing dose with respect to the immunitary response, results, for this reason, in a weak or zero response to the antigen only in the controls: It constitutes therefore a severe criterien to establish the activity of an adjuvant substance. Thirty days later, the mice received, by the same administrative route, a booster containing 0.1 mg of the same antigen.
The antibody level was determined, six days after the booster, by passive hemagglutination using sheep's red blood corpuscles treated with formalin and covered with the antigen studied according to the method described by A. A. HIRATA and M. W. BRANDISS (J. Immunol., 100, 641-648, 1968).
The antibody titer, represented by the maximum serum dilution agglutinating a given amount of sheep corpuscles, reaches a maximum at the 36th day and is established in the following manner: […]

Ovalbumin = assay: Adjuvant character in emulsion (delayed hypersensitivity and antibodies); format: in vivo, Hartley guinea pigs; conditions: guinea pigs, 50 μg in AlF emulsion with 1 mg ovalbumin; for Log2 of the hemagglutinating titer: serum day 21; for HSR (diameter of the delayed hypersensitivity reaction): skin test day 18, read 48 hours later
Method: The tests were carried out on batches of 6 male Hartley guinea pigs of 350 g. The administration was done by intradermal injection into the plantar pad of each of the rear paws. Ovalbumin (constituting the antigen) in the amount of 1 mg is prepared in 0.1 ml of an emulsion of saline isotonic solution, in any oily phase constituted either by the Freund imcomplete adjuvant (FIA), or by the complete adjuvant (FCA) formed by the FIA to which is added 0.1 mg of whole Mycobacterium smegmatis cells. The compound according to the invention was administered in the amount of 0.05 mg added in the emulsion containing the FIA.
Eighteen days after this immunization, possible delayed hypersensitivity reactions to the antigen were sought by injecting by the intradermal route 0.01 mg of ovalbumin in the side of the animals, and 48 hours later, the reaction of the point of injection was observed. The diameter in millimeters of the reaction thus caused was measured.
Twenty-one days after the injection, the animals were bled. […]

[2] = Toxicity (lethal dose 50) by parenteral administration in the adrenalectomised mouse; format: in vivo, mice
Method: The toxicity of the products according to the invention was investigated by parenteral administration in mice. It was observed that the toxic doses were of an order of magnitude very much higher than that of the doses at which these products manifest their activity. Thus the lethal dose 50 of the products according to the invention tested was higher than 5 mg/kg of animal in the adrenalectomised mouse, whose sensitivity to endotoxins is well-known.

Klebsiella pneumoniae = assay: Anti-infectious activity with respect to Klebsiella; format: in vivo; conditions: mice, i.v. treatment 24h before 2 × 10^4 bacteria i.m.
Method: The survival of groups of inoculated mice under the above conditions and treated by means of the products according to the invention was followed.
The infecting dose was 2.10^4 Klebsiella; it was administered by the intramuscular route.
The administration of the tested product was carried out by the intravenous route in 0.2 ml of apyrogenic physiological solution, the controls receiving the solution alone. It was carried out 24 hours before the inoculation.
The percentage protection indicated is a difference of the percentages of survivors of the treated group with respect to the control group.

[3] = test system: Limulus amoebocyte lysate; assay: Limulus test (endotoxic type activity); conditions: gel formation after 20 minutes at 37° C.
Method: For this purpose, 0.1 ml of the Limulus amoebocyte lysate preparation (marketed by the MALLINCKRODT Company, at St. LOUIS, U.S.A.) was mixed with an equal volume of the tested product at various concentrations in solution in apyrogenic distilled water. The vessels used were also made apyrogenic by dry heating in the oven, at 180° C., for 2 hours.
After incubating the mixture for 20 minutes at 37° C. in tubes, the formation of gel characteristics of the presence of endotoxin was estimated.

Listeria monocytogenes = assay: Anti-infectious activity with respect to Listeria; format: in vivo; conditions: mice, i.v., 1 day before infection

SMILES | Log2 hemagglutinating titer [1] | Log2 of the hemagglutinating titer (Ovalbumin) | HSR (diameter of the delayed hypersensitivity reaction) (Ovalbumin) [millimeters] | lethal dose 50 [2] | % of protection (Klebsiella pneumoniae; dose per mouse 100) [%] | Number of survivors at day 3 (Klebsiella pneumoniae; dose per mouse 100) | Number of survivors at day 5 (Klebsiella pneumoniae; dose per mouse 100) | Number of survivors at day 8 (Klebsiella pneumoniae; dose per mouse 100) | other results
CC(=O)N[C@H]1C(O)O[C@H](CO)[C@@H](O)[C@@H]1O[C@H](C)C(=O)N[C@@H](C)C(=O)N[C@H](CCC(=O)N[C@@H](C)C(=O)OCc1ccccc1)C(N)=O (stereo partly drawn) [MDP--L--Ala--benzyl--ester, Benzyl ester of N-acetyl-muramyl-L-alanyl-D-isoglutaminyl-L-alanine] | 7.47 ± 0.89 | 12.31 ± 0.82 | 12.5 ± 3.5 | higher than 5 mg/kg | 46 | 24 | 14 | 14 | –
CCCCOC(=O)[C@H](C)NC(=O)CC[C@@H](NC(=O)[C@H](C)NC(=O)[C@@H](C)O[C@H]1[C@H](O)[C@@H](CO)OC(O)[C@@H]1NC(C)=O)C(N)=O (stereo partly drawn) [MDP--L--Ala--butyl--ester, n-butyl ester of N-acetyl-muramyl-L-alanyl-D-isoglutaminyl-L-alanine] | 10.31 ± 0.49 | 13.31 ± 0.52 | 18 ± 2 | – | 54 | 23 | 18 | 17 | –
CCCCCCCCCCNC(=O)[C@H](C)NC(=O)CC[C@@H](NC(=O)[C@H](C)NC(=O)[C@@H](C)O[C@H]1[C@H](O)[C@@H](CO)OC(O)[C@@H]1NC(C)=O)C(N)=O (stereo partly drawn) [MDP--L--Ala--decyl--amide, Decylamide of N-acetyl-muramyl-L-alanyl-D-isoglutamine-L-alanine] | 8.64 ± 0.95 | – | – | higher than 5 mg/kg | 50 | 21 | 17 | 16 | Limulus test result (concentration of the tested product) [3]: 100 µg/mL
CCCCCCCCCCOC(=O)[C@H](C)NC(=O)CC[C@@H](NC(=O)[C@H](C)NC(=O)[C@@H](C)O[C@H]1[C@H](O)[C@@H](CO)OC(O)[C@@H]1NC(C)=O)C(N)=O (stereo partly drawn) [MDP--L--Ala--decyl--ester, Decyl ester of N-acetyl-muramyl-L-alanyl-D-isoglutaminyl-L-alanine] | 6.23 ± 1.23 | – | – | – | 44 | 30 | 22 | 22 | % of protection (Listeria monocytogenes; 10 μg per mouse): 50%; Number of surviving animals at day 5 (Listeria monocytogenes; 10 μg per mouse): 7; Number of surviving animals at day 10 (Listeria monocytogenes; 10 μg per mouse): 5; % of protection (Listeria monocytogenes; 100 μg per mouse): 38%; Number of surviving animals at day 5 (Listeria monocytogenes; 100 μg per mouse): 19; Number of surviving animals at day 10 (Listeria monocytogenes; 100 μg per mouse): 11; % of protection (Listeria monocytogenes; 300 μg per mouse): 23%; Number of surviving animals at day 5 (Listeria monocytogenes; 300 μg per mouse): 11; Number of surviving animals at day 10 (Listeria monocytogenes; 300 μg per mouse): 5; Limulus test result (concentration of the tested product) [3]: 100 µg/mL
CCCCCCCCCCCCCCCOC(=O)[C@H](C)NC(=O)CC[C@@H](NC(=O)[C@H](C)NC(=O)[C@@H](C)O[C@H]1[C@H](O)[C@@H](CO)OC(O)[C@@H]1NC(C)=O)C(N)=O (stereo partly drawn) [MDP--L--Ala--penta--decyl--ester, Pentadecyl ester of N-acetyl-muramyl-L-alanyl-D-isoglutaminyl-L-alanine] | 8.39 ± 0.89 | 10.97 ± 1.04 | 5 | – | 50 | 24 | 16 | 15 | –
CCCCCCCCCCOC(=O)[C@H](CCCCN)NC(=O)CC[C@@H](NC(=O)[C@H](C)NC(=O)[C@@H](C)O[C@H]1[C@H](O)[C@@H](CO)OC(O)[C@@H]1NC(C)=O)C(N)=O (stereo partly drawn) [MDP--L--Lys--decyl--ester, Decyl ester of N-acetyl-muramyl-L-alanyl-D-isoglutaminyl-L-lysine] | 9.64 ± 0.70 | – | – | higher than 5 mg/kg | 71 | 22 | 20 | 20 | –
CCCCCCCCCCOC(=O)CC[C@@H](NC(=O)[C@H](C)NC(=O)[C@@H](C)O[C@H]1[C@H](O)[C@@H](CO)OC(O)[C@@H]1NC(C)=O)C(N)=O (stereo partly drawn) [MDP--decyl--ester, Decyl ester of N-acetyl-muramyl-L-alanyl-D-isoglutamine] | 8.64 ± 1.31 | – | – | higher than 5 mg/kg | 75 | 24 | 21 | 21 | Number of survivors at day 3 (Klebsiella pneumoniae; dose per mouse 10): 1; Number of survivors at day 5 (Klebsiella pneumoniae; dose per mouse 10): 0; Number of survivors at day 8 (Klebsiella pneumoniae; dose per mouse 10): 0
CCCCOC(=O)CC[C@@H](NC(=O)[C@H](C)NC(=O)[C@@H](C)O[C@H]1[C@H](O)[C@@H](CO)OC(O)[C@@H]1NC(C)=O)C(=O)OC (stereo partly drawn) [MDPA(butyl--ester)OCH3, α-methyl, γ-n-butyl N-acetyl-muramyl-L-alanyl-D-glutamic diester] | – | – | – | – | 38 | 12 | 11 | 9 | –
CCCCCCCCCCOC(=O)CC[C@@H](NC(=O)[C@H](C)NC(=O)[C@@H](C)O[C@H]1[C@H](O)[C@@H](CO)OC(O)[C@@H]1NC(C)=O)C(=O)OC (stereo partly drawn) [MDPA(decyl--ester)OCH3, α-methyl, γ-decyl N-acetyl-muramyl-L-alanyl-D-glutamic diester] | – | – | – | – | 44 | 13 | 11 | 10 | –

Reference: patent US4396607A, “Muramyl peptide derivatives and pharmaceutical compositions” (priority 1978, dated 1983)
